“And” between values parts separate entries of the source, which are not always exact repeats. Equal values may be shown once. Read-outs that look alike come from different tables or passages of the source.

The test system of data set [1] is human monocytic leukemia THP-1 cells. The data set can be described thus: in vitro antiproliferative assay (WST-1). It counts as cell-based. The following applies: Homo sapiens, THP-1, 24 h, read-out: Tox IC50. In short, it runs like this: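 THP-1 cells in serum-free RPMI 1640 treated with compounds (DMSO ≤0.1%) for 24 h at 37 °C, 5% CO2, triplicate; viability by WST-1 tetrazolium read-out. IC50 from dose-response curve.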

In data set [2] the test system is vancomycin-resistant enterococci VRE 342B. Put plainly: MIC, broth microdilution. It counts as cell-based, Enterococcus faecalis. The following applies: Enterococcus, read-out: MICs. The gist of the method:
(§1)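 Modified broth microdilution; inoculum 5 × 10^5 CFU/mL final (from 0.5 McFarland PBS suspension). Media: CaMH broth for staph, BHI for VRE. Aerobic, 37 °C, overnight.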
On the technique in general: In broth dilution the organism is exposed to a series of concentrations in liquid medium.

The subject of data set [3] is vancomycin-resistant enterococci VRE 368. Put plainly: MIC, broth microdilution. The format is cell-based, Enterococcus faecalis. To be noted: Enterococcus, read-out: MICs. In short, it runs like this: as §1
The test system of data set [4] is vancomycin-resistant enterococci VRE 725B. Put plainly: MIC, broth microdilution. The following applies: Enterococcus, read-out: MICs. The format is cell-based, Enterococcus faecalis. In short, it runs like this: as §1
Data set [5] has as its system methicillin-resistant S. aureus 63718. The data set can be described thus: MIC, broth microdilution. The format is cell-based, Staphylococcus aureus. The following applies: Staphylococcus aureus, read-out: MICs. In short, it runs like this: as §1
Data set [6] concerns methicillin-resistant S. aureus SA 630. The data set can be described thus: MIC, broth microdilution. To be noted: Staphylococcus aureus, read-out: MICs. It counts as cell-based, Staphylococcus aureus. In short, it runs like this:
as §1

In another data set the test system is S. aureus ATCC 29213. Put plainly: MIC, broth microdilution. It counts as cell-based, Staphylococcus aureus. To be noted: Staphylococcus aureus. The gist of the method:
as §1

Data set [7] has as its system methicillin-resistant S. aureus SA 3202. Put plainly: MIC, broth microdilution. It counts as cell-based, Staphylococcus aureus. To be noted: Staphylococcus aureus, read-out: MICs. In short, it runs like this: as §1
The test system of a further data set is E. faecalis ATCC 29212. The data set can be described thus: MIC, broth microdilution. The format is cell-based, Enterococcus faecalis. To be noted: Enterococcus faecalis, ATCC 29212 / ATCC 29213; EF = E. faecalis ATCC 29213. The gist of the method: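 Each strain, standardized to 0.5 McFarland and brought to a final 5 × 10^5 CFU/mL, was exposed to compound dilutions in genus-appropriate medium (cation-adjusted MH for S. aureus, BHI for enterococci). It was then held overnight under air at 37 °C before growth inhibition was scored.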

Details of data set [8]: method as in PMID 30274224. To be noted: isocratic RP-HPLC, extrapolated lipophilicity index; cited from earlier work.
The subject of data set [9] is Candida albicans CCM 8261. The data set can be described thus: minimum fungistatic concentration, RPMI 1640. The format is cell-based. To be noted: CCM8261, CA = C albicans CCM 8261, 48 h. The procedure: Fungistatic activity was tested similarly in RPMI (Roswell Park Memorial Institute) 1640 medium (Sigma, Pool, UK). […] A growth control and sterility control were included. The colonies of C. albicans grown overnight on Sabourad dextrose agar were suspended in sterile phosphate-buffered saline (PBS) to get cell density 0.5 McFarland. The inoculum was diluted to get a final concentration of 10^3 CFU/mL in the wells. Plates were inoculated and cultivated at 37 °C for 48 h. The minimum fungistatic concentration was visually evaluated as the lowest concentration of a tested compound, which inhibited 100% of yeast growth. 5-Flucytosin (Sigma, UK) was used as a positive control.

Setting [10] is: ATCC29213, SA = S. aureus ATCC 29213, read-out: MICs.
Setting [11] is: ATCC29213, Table 7, planktonic cells of S. aureus ATCC 29213, read-out: MIC.

Turning to `CN[C@H](CC(C)C)C(=O)N[C@H]1C(=O)N[C@@H](CC(N)=O)C(=O)N[C@H]2C(=O)N[C@H]3C(=O)N[C@H](C(=O)N[C@H](C(=O)O)c4cc(O)cc(O)c4-c4cc3ccc4O)[C@H](O)c3ccc(c(Cl)c3)Oc3cc2cc(c3O[C@@H]2O[C@H](CO)[C@@H](O)[C@H](O)[C@H]2O[C@H]2C[C@](C)(N)[C@H](O)[C@H](C)O2)Oc2ccc(cc2Cl)[C@H]1O` [VAN, vancomycin, reference compound], in data set [1], the half-inhibitory concentration (IC50) – broadly, the concentration needed to halve the response being measured – was greater than 30 µM. Besides, the MIC in data set [2] (VRE) is 512 µg/mL and 353 µM; in [3] (VRE) it was 512 µg/mL and 353 µM; in data set [4] (VRE), 1020 µg/mL and 706 µM; in [5] it was 2 µg/mL and 1.38 µM; in data set [6], 1 µg/mL and 0.69 µM; with S. aureus ATCC 29213 (ATCC29213, read-out: MICs), 1 µg/mL and 0.69 µM. The MIC in data set [7] was 1 µg/mL and 0.69 µM.

Turning to `CCCCCCOc1cccc(NC(=O)OC(CN(CCC)CCC)CN2CCCC2)c1.Cl.Cl` (centres unmarked) [1g, 1-[3-(dipropylammonio)-2-({[3-(hexyloxy)phenyl]carbamoyl}oxy)propyl]pyrrolidinium dichloride], the IC50 in [1] (THP-1 cells, WST-1, 24 h) came out at 3.5 ± 0.31 µM. For the same molecule, the MIC is 8 µg/mL and 15.4 µM in [2] (VRE1 = VRE 342B); 8 µg/mL and 15.4 µM in data set [3] (VRE2 = VRE 368); 16 µg/mL and 30.8 µM against E. faecalis ATCC 29212; 8 µg/mL and 15.4 µM in data set [4] (VRE3 = VRE 725B); 16 µg/mL and 30.8 µM in [9]; 8 µg/mL and 15.4 µM in [5] (MRSA1 = S. aureus 63718). Besides, the MIC in data set [6] (MRSA2 = SA 630) is 16 µg/mL and 30.8 µM; with S. aureus ATCC 29213 (setting [10]) it was 8 µg/mL and 15.4 µM; in the data set on S. aureus ATCC 29213 (setting [11]), 8 µg/mL; in data set [7] (MRSA3 = SA 3202), 8 µg/mL and 15.4 µM. Also, the log kw in [8] is 4.9446.

With `CCCCCOc1cccc(NC(=O)OC(CN(CCC)CCC)CN2CCCC2)c1.Cl.Cl` (centres unmarked) [1f, 1-[3-(dipropylammonio)-2-({[3-(pentyloxy)phenyl]carbamoyl}-oxy)propyl]pyrrolidinium dichloride], the IC50 in data set [1] (THP-1 cells, WST-1, 24 h) is 4.19 ± 0.54 µM. The MIC in data set [2] (VRE1 = VRE 342B) is 16 µg/mL and 31.6 µM; in [3] (VRE2 = VRE 368) it was 16 µg/mL and 31.6 µM; against E. faecalis ATCC 29212, 32 µg/mL and 63.2 µM; in data set [4] (VRE3 = VRE 725B), 16 µg/mL and 31.6 µM; in [9], 128 µg/mL and 252 µM; in [5] (MRSA1 = S. aureus 63718), 16 µg/mL and 31.6 µM. In addition, the MIC in [6] (MRSA2 = SA 630) is 32 µg/mL and 63.2 µM; with S. aureus ATCC 29213 (setting [10]), 16 µg/mL and 31.6 µM; with S. aureus ATCC 29213 (setting [11]), 16 µg/mL; in data set [7] (MRSA3 = SA 3202) it was 16 µg/mL and 31.6 µM. In data set [8], the log kw is 4.6722.

For `CCCCCCCOc1cccc(NC(=O)OC(CN(CCC)CCC)CN2CCCC2)c1.Cl.Cl` (centres unmarked) [1h, 1-[3-(Dipropylammonio)-2-({[3-(heptyloxy)phenyl]carbamoyl}oxy)propyl]pyrrolidinium dichloride], the IC50 in data set [1] (THP-1 cells, WST-1, 24 h) came out at 3.67 ± 0.01 µM. Further, the MIC was 4 µg/mL and 7.51 µM in data set [2] (VRE1 = VRE 342B); 4 µg/mL and 7.51 µM in data set [3] (VRE2 = VRE 368); 8 µg/mL and 15 µM with E. faecalis ATCC 29212; 4 µg/mL and 7.51 µM in [4] (VRE3 = VRE 725B); 8 µg/mL and 15 µM in [9]; 8 µg/mL and 15 µM in data set [5] (MRSA1 = S. aureus 63718). In addition, the MIC is 8 µg/mL and 15 µM in data set [6] (MRSA2 = SA 630); 8 µg/mL and 15 µM with S. aureus ATCC 29213 (setting [10]); 8 µg/mL in the data set on S. aureus ATCC 29213 (setting [11]); 8 µg/mL and 15 µM in [7] (MRSA3 = SA 3202). Also, in [8], the log kw is listed as 5.5384.

The values above are taken from paper PMC7168207, “Dibasic Derivatives of Phenylcarbamic Acid as Prospective Antibacterial Agents Interacting with Cytoplasmic Membrane” (Antibiotics, 2020).
